The supplement of paper PMC10307832

Legend:
Test in all cases: relative viability (nuclei count vs DMSO), 5 days (fraction); higher = more cells survive
[1] = test system: 201T
Outline: (§1)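 Relative viability is defined as nuclei in treated wells over nuclei in vehicle wells. Duplicate plates were run and medians reported. Lung cancer cell lines in 1536-well plates were dosed by pin tool one day after seeding, with one drug or with a fixed anchor-drug dose plus five library-drug doses (not always all listed) in √10 steps, and nuclei were counted after 5 days.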

[2] = test system: COR-L23
Outline: as §1

[3] = test system: H3255
Outline: as §1

[4] = test system: HARA
Outline: as §1

[5] = test system: HCC-366
Outline: as §1

[6] = test system: HCC-78
Outline: as §1

[7] = test system: LU99A
Outline: as §1

[8] = test system: NCI-H1650
Outline: as §1

[9] = test system: NCI-H1651
Outline: as §1

[10] = test system: NCI-H1755
Outline: as §1

[11] = test system: NCI-H1793
Outline: as §1

[12] = test system: NCI-H2085
Outline: as §1

[13] = test system: NCI-H2087
Outline: as §1

[14] = test system: NCI-H23
Outline: as §1

[15] = test system: NCI-H3122
Outline: as §1

[16] = test system: NCI-H322M
Outline: as §1

[17] = test system: NCI-H358
Outline: as §1

[18] = test system: NCI-H460
Outline: as §1

[19] = test system: NCI-H522
Outline: as §1

[20] = test system: NCI-H596
Outline: as §1

[21] = test system: NCI-H650
Outline: as §1

[22] = test system: PC-3 [JPC-3]
Outline: as §1

[23] = test system: SK-LU-1
Outline: as §1

Cc1cn(-c2cc(NC(=O)c3ccc(C)c(Nc4nccc(-c5cccnc5)n4)c3)cc(C(F)(F)F)c2)cn1 [Nilotinib] + Cc1nc(Nc2ncc(C(=O)Nc3c(C)cccc3Cl)s2)cc(N2CCN(CCO)CC2)n1 [Dasatinib] (partner 0.075 µM)
relative viability ([1]; first compound 0.01 µM): 0.404
relative viability ([1]; first compound 0.03162 µM): 0.451
relative viability ([1]; first compound 0.1 µM): 0.295
relative viability ([2]; first compound 0.001 µM): 0.482
relative viability ([2]; first compound 0.003162 µM): 0.501
relative viability ([2]; first compound 0.01 µM): 0.511
relative viability ([2]; first compound 0.03162 µM): 0.265
relative viability ([2]; first compound 0.1 µM): 0.407
relative viability ([3]; first compound 0.001 µM): 0.381
relative viability ([3]; first compound 0.003162 µM): 0.325
relative viability ([3]; first compound 0.03162 µM): 0.316
relative viability ([3]; first compound 0.1 µM): 0.304
relative viability ([4]; first compound 0.001 µM): 0.325
relative viability ([4]; first compound 0.003162 µM): 0.345
relative viability ([4]; first compound 0.01 µM): 0.289
relative viability ([4]; first compound 0.03162 µM): 0.178
relative viability ([4]; first compound 0.1 µM): 0.112
relative viability ([5]; first compound 0.001 µM): 0.614
relative viability ([5]; first compound 0.003162 µM): 0.938
relative viability ([5]; first compound 0.01 µM): 0.958
relative viability ([5]; first compound 0.03162 µM): 0.4
relative viability ([5]; first compound 0.1 µM): 0.181
relative viability ([6]; first compound 0.001 µM): 0.442
relative viability ([6]; first compound 0.003162 µM): 0.357
relative viability ([6]; first compound 0.01 µM): 0.404
relative viability ([6]; first compound 0.03162 µM): 0.252
relative viability ([6]; first compound 0.1 µM): 0.268
relative viability ([7]; first compound 0.001 µM): 0.482
relative viability ([7]; first compound 0.003162 µM): 0.702
relative viability ([7]; first compound 0.01 µM): 0.557
relative viability ([7]; first compound 0.03162 µM): 0.359
relative viability ([7]; first compound 0.1 µM): 0.282
relative viability ([8]; first compound 0.001 µM): 0.335
relative viability ([8]; first compound 0.003162 µM): 0.32
relative viability ([8]; first compound 0.01 µM): 0.265
relative viability ([8]; first compound 0.03162 µM): 0.321
relative viability ([8]; first compound 0.1 µM): 0.21
relative viability ([9]; first compound 0.001 µM): 0.426
relative viability ([9]; first compound 0.003162 µM): 0.387
relative viability ([9]; first compound 0.01 µM): 0.42
relative viability ([9]; first compound 0.1 µM): 0.208
relative viability ([10]; first compound 0.001 µM): 0.376
relative viability ([10]; first compound 0.003162 µM): 0.381
relative viability ([10]; first compound 0.01 µM): 0.404
relative viability ([10]; first compound 0.03162 µM): 0.276
relative viability ([10]; first compound 0.1 µM): 0.184
relative viability ([11]; first compound 0.001 µM): 0.303
relative viability ([11]; first compound 0.003162 µM): 0.407
relative viability ([11]; first compound 0.01 µM): 0.459
relative viability ([11]; first compound 0.03162 µM): 0.283
relative viability ([11]; first compound 0.1 µM): 0.194
relative viability ([12]; first compound 0.001 µM): 0.28
relative viability ([12]; first compound 0.003162 µM): 0.198
relative viability ([12]; first compound 0.01 µM): 0.179
relative viability ([12]; first compound 0.03162 µM): 0.231
relative viability ([12]; first compound 0.1 µM): 0.248
relative viability ([13]; first compound 0.001 µM): 0.821
relative viability ([13]; first compound 0.003162 µM): 1.33
relative viability ([13]; first compound 0.01 µM): 1.13
relative viability ([13]; first compound 0.03162 µM): 0.357
relative viability ([13]; first compound 0.1 µM): 0.203
relative viability ([14]; first compound 0.001 µM): 0.691
relative viability ([14]; first compound 0.003162 µM): 0.681
relative viability ([14]; first compound 0.01 µM): 0.823
relative viability ([14]; first compound 0.03162 µM): 0.309
relative viability ([14]; first compound 0.1 µM): 0.508
relative viability ([15]; first compound 0.001 µM): 0.719
relative viability ([15]; first compound 0.003162 µM): 0.91
relative viability ([15]; first compound 0.01 µM): 0.982
relative viability ([15]; first compound 0.03162 µM): 0.267
relative viability ([15]; first compound 0.1 µM): 0.129
relative viability ([16]; first compound 0.001 µM): 0.295
relative viability ([16]; first compound 0.003162 µM): 0.279
relative viability ([16]; first compound 0.03162 µM): 0.282
relative viability ([16]; first compound 0.1 µM): 0.234
relative viability ([17]; first compound 0.001 µM): 0.177
relative viability ([17]; first compound 0.003162 µM): 0.153
relative viability ([17]; first compound 0.01 µM): 0.18
relative viability ([17]; first compound 0.03162 µM): 0.178
relative viability ([17]; first compound 0.1 µM): 0.157
relative viability ([18]; first compound 0.001 µM): 0.487
relative viability ([18]; first compound 0.003162 µM): 0.384
relative viability ([18]; first compound 0.01 µM): 0.65
relative viability ([18]; first compound 0.03162 µM): 0.444
relative viability ([18]; first compound 0.1 µM): 0.432
relative viability ([19]; first compound 0.001 µM): 0.851
relative viability ([19]; first compound 0.003162 µM): 0.873
relative viability ([19]; first compound 0.01 µM): 1.16
relative viability ([19]; first compound 0.03162 µM): 0.715
relative viability ([19]; first compound 0.1 µM): 0.596
relative viability ([20]; first compound 0.001 µM): 0.485
relative viability ([20]; first compound 0.003162 µM): 0.705
relative viability ([20]; first compound 0.01 µM): 0.507
relative viability ([20]; first compound 0.03162 µM): 0.504
relative viability ([20]; first compound 0.1 µM): 0.349
relative viability ([21]; first compound 0.001 µM): 0.462
relative viability ([21]; first compound 0.003162 µM): 0.479
relative viability ([21]; first compound 0.01 µM): 0.49
relative viability ([21]; first compound 0.03162 µM): 0.408
relative viability ([21]; first compound 0.1 µM): 0.379
relative viability ([22]; first compound 0.001 µM): 0.95
relative viability ([22]; first compound 0.003162 µM): 1.09
relative viability ([22]; first compound 0.01 µM): 1.1
relative viability ([22]; first compound 0.03162 µM): 0.844
relative viability ([22]; first compound 0.1 µM): 0.528
relative viability ([23]; first compound 0.001 µM): 0.196
relative viability ([23]; first compound 0.003162 µM): 0.146
relative viability ([23]; first compound 0.01 µM): 0.21
relative viability ([23]; first compound 0.03162 µM): 0.177
relative viability ([23]; first compound 0.1 µM): 0.177
